Source: patent US11820760B2, “Crystalline polymorphs of Bruton's tyrosine kinase inhibitors” (BIOGEN MA INC., priority 2018, dated 2023)

Legend:
Format in all cases: physicochemical
[1] = Variable temperature powder X-ray diffraction (VT-PXRD) of crystalline forms
Experimental: Crystallinity of the compound was studied using a XRD-D8 X-ray powder diffractometer using Cu Ka radiation (Bruker, Madison, Wis.). The instrument is equipped with a long fine focus X-ray tube. The tube voltage and amperage were set to 40 kV and 40 mA, respectively. The divergence and scattering slits were set at 1° and the receiving slit was set at 0.15 mm. Diffracted radiation was detected by a Lynxeye detector. A θ-2θ continuous scan at 1.6°/min from 3 to 42° 2θ was used. The sample was prepared for analysis by placing it on a zero background plate. Variable temperature powder X-ray diffraction (VT-PXRD) of Form B was performed by hearing a sample of Form B to 130° C. under N2, following by cooling back down to 30° C. […] (losing all water at this temperature) under N2, indicating Form B is a hygroscopic anhydrate. Variable temperature powder X-ray diffraction (VT-PXRD) of Form C was performed. A sample of Form C was dehydrated by purging the sample under N2 at 30° C. for 20 minutes and then heated to 100° C. under N2 followed by cooling back down to 30° C. and exposed to air for 20 minutes.

[2] = PXRD of Form P after grinding in water; conditions: Form P with 2.9 wt % water ground in water with mortar and pestle to a viscous slurry
Experimental: Crystallinity of the compound was studied using a XRD-D8 X-ray powder diffractometer using Cu Ka radiation (Bruker, Madison, Wis.). The instrument is equipped with a long fine focus X-ray tube. The tube voltage and amperage were set to 40 kV and 40 mA, respectively. The divergence and scattering slits were set at 1° and the receiving slit was set at 0.15 mm. Diffracted radiation was detected by a Lynxeye detector. A θ-2θ continuous scan at 1.6°/min from 3 to 42° 2θ was used. The sample was prepared for analysis by placing it on a zero background plate. Crystalline Form P with 2.9 wt % of water were prepared using similar procedures as described in Method A. Dichloromethane (15V) and n-propyl acetate (35 V) were used as solvents and the DSC/TGA graph is shown in FIG. 25. Crystalline Form P with 2.9 wt % of water was ground in water using a mortar and pestle to produce a viscous slurry. The sample was rapidly prepared, covered with Kapton film and analyzed by PXRD.

[3] = PXRD comparison of Form H before and after heating; conditions: heated to 125° C.
Experimental: Crystallinity of the compound was studied using a XRD-D8 X-ray powder diffractometer using Cu Ka radiation (Bruker, Madison, Wis.). The instrument is equipped with a long fine focus X-ray tube. The tube voltage and amperage were set to 40 kV and 40 mA, respectively. The divergence and scattering slits were set at 1° and the receiving slit was set at 0.15 mm. Diffracted radiation was detected by a Lynxeye detector. A θ-2θ continuous scan at 1.6°/min from 3 to 42° 2θ was used. The sample was prepared for analysis by placing it on a zero background plate. A sample of Form H was heated to 125° C. and PXRD pattern was compared with PXRD pattern for the sample before heating.

Compound: Cn1cc(Nc2nccc(-c3ccc4c(c3)CN(C3COC3)CC[C@H]4NC(=O)c3cn(C(C)(C)C)nn3)n2)cn1 [Form B, (R)-1-(tert-butyl)-N-(8-(2-((1-methyl-1H-pyrazol-4-yl)amino)pyrimidin-4-yl)-2-(oxetan-3-yl)-2,3,4,5-tetrahydro-1H-benzo[c]azepin-5-yl)-1H-1,2,3-triazole-4-carboxamide]
- form conversion after heating (VT-PXRD) ([1]; heated to 130° C. under N2, then cooled back to 30° C.): No form conversion

Compound: Cn1cc(Nc2nccc(-c3ccc4c(c3)CN(C3COC3)CC[C@H]4NC(=O)c3cn(C(C)(C)C)nn3)n2)cn1 [Form C, (R)-1-(tert-butyl)-N-(8-(2-((1-methyl-1H-pyrazol-4-yl)amino)pyrimidin-4-yl)-2-(oxetan-3-yl)-2,3,4,5-tetrahydro-1H-benzo[c]azepin-5-yl)-1H-1,2,3-triazole-4-carboxamide]
- form conversion after dehydration (VT-PXRD) ([1]; purging with N2 for 20 minutes at 30° C.): converted to Form L

Compound: Cn1cc(Nc2nccc(-c3ccc4c(c3)CN(C3COC3)CC[C@H]4NC(=O)c3cn(C(C)(C)C)nn3)n2)cn1 [Form P, (R)-1-(tert-butyl)-N-(8-(2-((1-methyl-1H-pyrazol-4-yl)amino)pyrimidin-4-yl)-2-(oxetan-3-yl)-2,3,4,5-tetrahydro-1H-benzo[c]azepin-5-yl)-1H-1,2,3-triazole-4-carboxamide]
- PXRD peak shifts after grinding in water [2]: No peak shifts

Compound: Cn1cc(Nc2nccc(-c3ccc4c(c3)CN(C3COC3)CC[C@H]4NC(=O)c3cn(C(C)(C)C)nn3)n2)cn1 [Form L, (R)-1-(tert-butyl)-N-(8-(2-((1-methyl-1H-pyrazol-4-yl)amino)pyrimidin-4-yl)-2-(oxetan-3-yl)-2,3,4,5-tetrahydro-1H-benzo[c]azepin-5-yl)-1H-1,2,3-triazole-4-carboxamide]
- form conversion after exposure to air (VT-PXRD) ([1]; exposure to air for about 2.5 hours, re-absorbs water): converts back to Form C

Compound: Cn1cc(Nc2nccc(-c3ccc4c(c3)CN(C3COC3)CC[C@H]4NC(=O)c3cn(C(C)(C)C)nn3)n2)cn1 [Form H, (R)-1-(tert-butyl)-N-(8-(2-((1-methyl-1H-pyrazol-4-yl)amino)pyrimidin-4-yl)-2-(oxetan-3-yl)-2,3,4,5-tetrahydro-1H-benzo[c]azepin-5-yl)-1H-1,2,3-triazole-4-carboxamide]
- form conversion after heating (PXRD before/after) [3]: no form conversion
